The values that follow are results of earlier work, collected in patent US20240000780A1, “PED5 INHIBITOR SEMI-SOLID COMPOSITIONS AND METHODS OF MAKING AND USING THEREOF” (Seattle Gummy Company, priority 2021, published 2024).

The conditions of the data set: ranking among alpha, beta, gamma cyclodextrins.

Regarding `OC[C@H]1O[C@@H]2O[C@H]3[C@H](O)[C@@H](O)[C@@H](O[C@H]4[C@H](O)[C@@H](O)[C@@H](O[C@H]5[C@H](O)[C@@H](O)[C@@H](O[C@H]6[C@H](O)[C@@H](O)[C@@H](O[C@H]7[C@H](O)[C@@H](O)[C@@H](O[C@H]8[C@H](O)[C@@H](O)[C@@H](O[C@H]9[C@H](O)[C@@H](O)[C@@H](O[C@H]1[C@H](O)[C@H]2O)O[C@@H]9CO)O[C@@H]8CO)O[C@@H]7CO)O[C@@H]6CO)O[C@@H]5CO)O[C@@H]4CO)O[C@@H]3CO` [gamma, gamma-cyclodextrin], the “stability of complex formed with tadalafil” value is recorded as “most stable complex”.
As to `OC[C@H]1O[C@@H]2O[C@H]3[C@H](O)[C@@H](O)[C@@H](O[C@H]4[C@H](O)[C@@H](O)[C@@H](O[C@H]5[C@H](O)[C@@H](O)[C@@H](O[C@H]6[C@H](O)[C@@H](O)[C@@H](O[C@H]7[C@H](O)[C@@H](O)[C@@H](O[C@H]1[C@H](O)[C@H]2O)O[C@@H]7CO)O[C@@H]6CO)O[C@@H]5CO)O[C@@H]4CO)O[C@@H]3CO` [alpha, alpha-cyclodextrin], the “stability of complex formed with tadalafil” value is on record as “least stable”.
